Reference: US20070014803A1, “METHODS AND COMPOSITIONS FOR DIAGNOSIS AND TREATMENT OF VIRAL AND BACTERIAL INFECTIONS” (Arbor Vita Corporation, priority 2005, published 2007)
Read-outs that look alike come from different tables or passages of the source. Where no end group is shown, it is not given here.

What was measured:
PDZ protein NSP = biological target: T1, PDZ protein NSP (Homo sapiens, UniProt Q92743); assay: PRISM Matrix ELISA modified G assay (pre-incubation), peptide titration; conditions: read-out: EC50 of binding to the PDZ protein NSP
T1 construct: made in house
T1 sequence (Q92743 359-473): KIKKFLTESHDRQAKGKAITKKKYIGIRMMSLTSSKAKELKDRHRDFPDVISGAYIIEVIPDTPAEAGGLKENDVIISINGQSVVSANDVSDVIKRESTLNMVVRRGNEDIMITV
Method: (§1) Two different types of ELISA assays were used to test the HIV Peptides 1904 and 1905. The primary MATRIX screen against all PDZ proteins in the library was performed under pre-incubation conditions, which are a modification of the G assay. A pre-incubation assay incubates the peptide with the HRP-streptavidin before addition of the mixture to the PDZ-coated plate. The subsequent titrations of the peptide against the PDZs of interest were performed under normal ELISA G assay conditions. In normal conditions the peptide is incubated on the PDZ coated plate before the later addition of the HRP-streptavidin. The reagents and supplies for both assays are listed below, as well as the two different protocols.
(§2) The PRISM Matrix ELISA modified G Assay was also used for pre-incubation and for the MATRIX assay. The protocol was as follows.
(§3) 1. Coat plate with 100 μl of 5 μg/ml anti-GST, O/N @ 4° C.
(§4) 2. Dump contents out of plate and tap dry on paper towels
(§5) 3. Block with 200 μl Assay Buffer for 1 to 2 hrs at room temperature
(§6) 4. Prepare proteins in Assay Buffer
(§7) 5. Wash plate 3× with cold PBS*
(§8) 6. Add proteins at 50 μl per well, incubate 1 to 2 hrs at 4° C.
(§9) 7. Prepare peptides in Assay Buffer:
(§10) • Prepare peptides in half of volume need with double of desired concentration. • Dilute HRP (1:1000) in another half of volume (same volume with peptide) then mix with peptides. • Incubate the peptide-HRP mixtures for 20 minutes at RT 8. Wash plate 3× with cold PBS* 9. Add peptide-HRP mixtures at 50 μl per well (write time on plate) 10. Incubate at RT after last peptide has been added for exactly 30 minutes 11. Turn on plate reader and prepare files 12. Promptly wash plate 5× with room temperature PBS 13. Add 100 μl/well TMB substrate (write time on plate) 14. Incubate in dark at room temp for a maximum of 30 minutes 15. Stop reaction with 100 μl of 0.18M H2SO4, 30 min. after adding TMB 16. Take last reading at 450 nm soon after stopping reaction

PDZ protein Rim2 = biological target: T2, PDZ protein Rim2 (Homo sapiens, UniProt Q9UQ26); assay: as above; conditions: read-out: EC50 of binding to the PDZ protein Rim2
T2 construct: made in house
T2 sequence (Q9UQ26 632-757): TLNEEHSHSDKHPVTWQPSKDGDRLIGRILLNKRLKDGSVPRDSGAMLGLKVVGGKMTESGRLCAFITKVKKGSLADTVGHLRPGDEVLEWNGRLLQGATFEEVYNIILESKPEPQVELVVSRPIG
Method: as §1, §2, §3, §4, §5, §6, §7, §8, §9, §10

[1] = biological target: T3, PDZ protein ZO-1 d2 (domain 2) (Homo sapiens, UniProt Q07157, DEL264-264); assay: as above; conditions: read-out: EC50 of binding to the PDZ protein ZO-1 d2
T3 construct: made in house
T3 sequence (Q07157 with tags, fused parts or gaps DEL264-264): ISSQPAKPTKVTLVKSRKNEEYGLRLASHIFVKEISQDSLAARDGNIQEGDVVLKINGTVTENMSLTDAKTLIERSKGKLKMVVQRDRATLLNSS
Method: as §1, §2, §3, §4, §5, §6, §7, §8, §9, §10

GORASP1 d1 = biological target: T4, GORASP1 d1 (Homo sapiens, UniProt Q9BQQ3); assay: MATRIX screen against PDZ library (modified G assay); format: binding; conditions: pre-incubation conditions
T4 construct: made in house
T4 sequence (Q9BQQ3 1-110): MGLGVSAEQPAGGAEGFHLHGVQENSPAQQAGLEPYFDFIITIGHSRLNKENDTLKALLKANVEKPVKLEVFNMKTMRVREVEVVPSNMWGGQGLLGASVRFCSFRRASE
Method: (§11) Matrix graphPeptides and proteins were tested in an array format constituting a near complete set (255) of all the different PDZ domains in the human genome. Each PDZ domain polypeptide was expressed as a recombinant GST-PDZ polypeptide in a commercial glutathione S-transferase tagged expression system. Specific binding of biotinylated-PL peptides to PDZ domain polypeptides was detected using streptavidin-HRP and TMB substrate. Similarly, specific binding of PL protein-MBP fusion proteins to PDZ domain polypeptides was visualized using biotinylated anti-MBP, streptavidin-HRP and TMB substrate. The relative strength of binding was analyzed and the strong and weak binders are shown for each PL. A PDZ protein that binds more strongly is preferable when used for capturing or identifying PL proteins.
as §1, §2, §3, §4, §5, §6, §7, §8, §9, §10

INADL d3 = biological target: T5, INADL d3 (Homo sapiens, UniProt Q8NI35); assay: as above; format: binding; conditions: pre-incubation conditions
T5 construct: made in house
T5 sequence (Q8NI35 with tags, fused parts or gaps): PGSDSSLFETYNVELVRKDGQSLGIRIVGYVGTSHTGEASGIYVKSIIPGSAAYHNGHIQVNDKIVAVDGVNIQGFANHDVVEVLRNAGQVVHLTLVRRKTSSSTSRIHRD
Method: as §11, §1, §2, §3, §4, §5, §6, §7, §8, §9, §10

KIAA0316 = biological target: T6, KIAA0316 (Homo sapiens, UniProt Q14CM0, A161E); assay: as above; format: binding; conditions: pre-incubation conditions
T6 construct: made in house
T6 sequence (Q14CM0 with tags, fused parts or gaps A161E): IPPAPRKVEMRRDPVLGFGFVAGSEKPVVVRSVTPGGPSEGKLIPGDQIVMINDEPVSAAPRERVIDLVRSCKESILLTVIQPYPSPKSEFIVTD
Method: as §11, §1, §2, §3, §4, §5, §6, §7, §8, §9, §10

KIAA1284 = biological target: T7, KIAA1284 (Homo sapiens, UniProt Q9ULD6); assay: as above; format: binding; conditions: pre-incubation conditions
T7 construct: made in house
T7 sequence (Q9ULD6 159-271): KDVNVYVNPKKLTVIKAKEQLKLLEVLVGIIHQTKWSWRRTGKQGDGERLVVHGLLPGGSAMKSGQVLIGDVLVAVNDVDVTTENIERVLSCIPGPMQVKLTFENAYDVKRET
Method: as §11, §1, §2, §3, §4, §5, §6, §7, §8, §9, §10

MAST2 = biological target: T8, MAST2 (Homo sapiens, UniProt Q6P0Q8); assay: as above; format: binding; conditions: pre-incubation conditions
T8 construct: made in house
T8 sequence (Q6P0Q8 with tags, fused parts or gaps): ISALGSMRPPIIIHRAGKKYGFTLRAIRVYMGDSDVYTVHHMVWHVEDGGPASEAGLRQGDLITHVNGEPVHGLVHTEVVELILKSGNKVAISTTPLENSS
Method: as §11, §1, §2, §3, §4, §5, §6, §7, §8, §9, §10

MINT1 d1, 2 = biological target: T9, MINT1 d1, 2 (Homo sapiens, UniProt Q02410); assay: as above; format: binding; conditions: pre-incubation conditions
T9 construct: MINT1 d1, 2; made in house
T9 sequence (Q02410 651-828): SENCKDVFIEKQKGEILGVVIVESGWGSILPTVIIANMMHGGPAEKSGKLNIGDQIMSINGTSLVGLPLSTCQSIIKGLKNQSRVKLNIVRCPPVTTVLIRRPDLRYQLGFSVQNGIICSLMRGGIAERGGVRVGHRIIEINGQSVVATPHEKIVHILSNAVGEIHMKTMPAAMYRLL
Method: as §11, §1, §2, §3, §4, §5, §6, §7, §8, §9, §10

MUPP1d11 = biological target: T10, MUPP1d11 (Homo sapiens, UniProt O75970); assay: as above; format: binding; conditions: pre-incubation conditions
T10 construct: made in house
T10 sequence (O75970 1716-1813): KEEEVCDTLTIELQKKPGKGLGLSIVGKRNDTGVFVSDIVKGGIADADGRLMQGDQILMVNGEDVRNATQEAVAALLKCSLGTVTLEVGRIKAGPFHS
Method: as §11, §1, §2, §3, §4, §5, §6, §7, §8, §9, §10

MUPP1d3 = biological target: T11, MUPP1d3 (Homo sapiens, UniProt O75970); assay: as above; format: binding; conditions: pre-incubation conditions
T11 construct: made in house
T11 sequence (O75970 with tags, fused parts or gaps): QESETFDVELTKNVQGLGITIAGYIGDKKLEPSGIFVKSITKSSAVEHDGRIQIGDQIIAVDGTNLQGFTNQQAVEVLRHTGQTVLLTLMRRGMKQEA
Method: as §11, §1, §2, §3, §4, §5, §6, §7, §8, §9, §10

NSP = biological target: T12, NSP (Homo sapiens, UniProt Q92743); assay: as above; format: binding; conditions: pre-incubation conditions
T12 construct: made in house
T12 sequence (Q92743 359-473): as the sequence (Q92743 359-473) above
Method: as §11, §1, §2, §3, §4, §5, §6, §7, §8, §9, §10

PAR3 d3 = biological target: T13, PAR3 d3 (Homo sapiens, UniProt Q8TEW0, R682S); assay: as above; format: binding; conditions: pre-incubation conditions
T13 construct: made in house
T13 sequence (Q8TEW0 with tags, fused parts or gaps R682S): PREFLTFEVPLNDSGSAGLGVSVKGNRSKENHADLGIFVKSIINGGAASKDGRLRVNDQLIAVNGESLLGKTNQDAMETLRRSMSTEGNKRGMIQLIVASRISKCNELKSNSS
Method: as §11, §1, §2, §3, §4, §5, §6, §7, §8, §9, §10

RIM2 = biological target: T14, RIM2 (Homo sapiens, UniProt Q9UQ26); assay: as above; format: binding; conditions: pre-incubation conditions
T14 construct: made in house
Method: as §11, §1, §2, §3, §4, §5, §6, §7, §8, §9, §10

SIP1 d1 = biological target: T15, SIP1 d1 (Homo sapiens, UniProt Q15599); assay: as above; format: binding; conditions: pre-incubation conditions
T15 construct: made in house
T15 sequence (Q15599 with tags, fused parts or gaps): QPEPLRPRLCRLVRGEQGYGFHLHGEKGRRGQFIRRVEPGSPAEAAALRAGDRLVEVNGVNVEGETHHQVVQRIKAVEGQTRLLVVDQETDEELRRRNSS
Method: as §11, §1, §2, §3, §4, §5, §6, §7, §8, §9, §10

SITAC-18 d2 = biological target: T16, SITAC-18 d2 (Homo sapiens, UniProt Q9H190); assay: as above; format: binding; conditions: pre-incubation conditions
T16 construct: made in house
T16 sequence (Q9H190 with tags, fused parts or gaps): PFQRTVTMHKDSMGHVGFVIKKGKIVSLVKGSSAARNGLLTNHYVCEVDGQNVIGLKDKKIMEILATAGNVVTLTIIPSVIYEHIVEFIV
Method: as §11, §1, §2, §3, §4, §5, §6, §7, §8, §9, §10

ZO-1 d4 = biological target: T17, ZO-1 d4 (Homo sapiens, UniProt Q07157); assay: as above; format: binding; conditions: pre-incubation conditions
T17 construct: ZO-1 d4; made in house
T17 sequence (Q07157 178-269 limits assumed): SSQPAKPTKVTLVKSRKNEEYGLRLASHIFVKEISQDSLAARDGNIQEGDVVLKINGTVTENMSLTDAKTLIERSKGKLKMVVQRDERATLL
Method: as §11, §1, §2, §3, §4, §5, §6, §7, §8, §9, §10

EBP50 d1 = biological target: T18, EBP50 d1 (Homo sapiens, UniProt O14745); assay: as above; format: binding; conditions: pre-incubation conditions
T18 construct: made in house
T18 sequence (O14745 with tags, fused parts or gaps): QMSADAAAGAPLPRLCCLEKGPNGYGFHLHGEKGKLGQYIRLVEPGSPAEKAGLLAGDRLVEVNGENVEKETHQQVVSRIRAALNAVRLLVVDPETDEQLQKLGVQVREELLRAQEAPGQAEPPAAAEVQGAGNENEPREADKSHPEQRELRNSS
Method: as §11, §1, §2, §3, §4, §5, §6, §7, §8, §9, §10

Shank 2 = biological target: T19, Shank 2 (Homo sapiens, UniProt Q9UPX8); assay: as above; format: binding; conditions: pre-incubation conditions
T19 construct: made in house
T19 sequence (Q9UPX8 with tags, fused parts or gaps): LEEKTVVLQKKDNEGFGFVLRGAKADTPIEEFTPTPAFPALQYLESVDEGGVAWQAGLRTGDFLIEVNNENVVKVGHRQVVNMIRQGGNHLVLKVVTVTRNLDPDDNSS
Method: as §11, §1, §2, §3, §4, §5, §6, §7, §8, §9, §10

Tip = biological target: T20, Tip (Homo sapiens, UniProt O14907); assay: as above; format: binding; conditions: pre-incubation conditions
T20 construct: made in house
T20 sequence (O14907 15-112): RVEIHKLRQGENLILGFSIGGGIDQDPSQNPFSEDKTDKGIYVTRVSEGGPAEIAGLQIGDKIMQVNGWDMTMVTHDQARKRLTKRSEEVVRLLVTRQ
Method: as §11, §1, §2, §3, §4, §5, §6, §7, §8, §9, §10

[2] = modified G assay titration (FIG. 2D, FIG. 3D)
[3] = modified G assay titration (FIG. 2C, FIG. 3C)
[4] = modified G assay titration (FIG. 2B, FIG. 3B)

Substance	EC50 (PDZ protein NSP; [2])	EC50 (PDZ protein Rim2; [3])	EC50 [1, 4]	Intensity of Hit, PDZ KIAA1284 (KIAA1284)	Intensity of Hit, PDZ MAST2 (MAST2)	Intensity of Hit, PDZ NSP (NSP)	Intensity of Hit, PDZ PAR3 d3 (PAR3 d3)	Intensity of Hit, PDZ SIP1 d1 (SIP1 d1)	also measured
YGRKKRRQRRRRQGLERILL-OH [Peptide 1904]	14.9 nM	30 nM	25 nM	STRONG	STRONG	STRONG	STRONG	WEAK	Intensity of Hit, PDZ GORASP1 d1 (GORASP1 d1): STRONG; Intensity of Hit, PDZ INADL d3 (INADL d3): STRONG; Intensity of Hit, PDZ KIAA0316 (KIAA0316): STRONG; Intensity of Hit, PDZ MINT1 d1, 2 (MINT1 d1, 2): STRONG; Intensity of Hit, PDZ MUPP1d11 (MUPP1d11): STRONG; Intensity of Hit, PDZ MUPP1d3 (MUPP1d3): WEAK; Intensity of Hit, PDZ RIM2 (RIM2): STRONG; Intensity of Hit, PDZ SITAC-18 d2 (SITAC-18 d2): STRONG; Intensity of Hit, PDZ ZO-1 d4 (ZO-1 d4): STRONG
YGRKKRRQRRRRQGFERALL-OH [Peptide 1905]	8 nM	14 nM	2.8 nM	STRONG	STRONG	STRONG	STRONG	STRONG	EC50 (PDZ protein NSP; modified G assay titration, third experiment (FIG. 5, printed as FIG. 3D)): 30 nM; EC50 (PDZ protein Rim2; modified G assay titration, third experiment (FIG. 5, printed as FIG. 3C)): 68 nM; EC50 ([1]; modified G assay titration, third experiment (FIG. 5B)): 36 nM; Intensity of Hit, PDZ EBP50 d1 (EBP50 d1): STRONG; Intensity of Hit, PDZ Shank 2 (Shank 2): STRONG; Intensity of Hit, PDZ Tip (Tip): STRONG
